In PubChem BioAssay AID1918954 (Molecular Pharmacology Branch, DTP, NCI, 2023):

Test system: MDA-MB-468 complex spheroids with HUVEC/MSC, viability
Assay: Anticancer human tumor MDA-MB-468 cell line growth inhibition;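 note: spheroids exposed to agents for seven days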;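 for viability, T/C: 100% = DMSO vehicle control viability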
Details: for IC50: curve of first compound; for viability, T/C: stronger effect = lower value
Method in brief: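 Drug combinations with the LSD1 inhibitor iadademstat tested on tumor cells co-cultured as spheroids with endothelial cells and mesenchymal stem cells. Concentrations descended in half-log increments from clinical Cmax or 10 microM.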

[1] = second compound 0.1 µM, first compound 0.0316 µM
[2] = second compound 0.1 µM, first compound 0.1 µM
[3] = second compound 0.1 µM, first compound 0.316 µM
[4] = second compound 0.1 µM, first compound 1 µM
[5] = second compound 0.316 µM, first compound 0.0316 µM
[6] = second compound 0.316 µM, first compound 0.1 µM
[7] = second compound 0.316 µM, first compound 0.316 µM
[8] = second compound 0.316 µM, first compound 1 µM
[9] = second compound 1 µM, first compound 0.0316 µM
[10] = second compound 1 µM, first compound 0.1 µM
[11] = second compound 1 µM, first compound 0.316 µM
[12] = second compound 1 µM, first compound 1 µM
[13] = second compound 3.16 µM, first compound 0.0316 µM
[14] = second compound 3.16 µM, first compound 0.1 µM
[15] = second compound 3.16 µM, first compound 0.316 µM
[16] = second compound 3.16 µM, first compound 1 µM
[17] = second compound 10 µM, first compound 0.0316 µM
[18] = second compound 10 µM, first compound 0.1 µM
[19] = second compound 10 µM, first compound 0.316 µM
[20] = second compound 10 µM, first compound 1 µM

COc1cc(Nc2ncc3c(n2)-c2ccc(Cl)cc2C(c2c(F)cccc2OC)=NC3)ccc1C(=O)O + NC1CCC(NC2CC2c2ccccc2)CC1
IC50 (second compound 0.1 µM): 0.00548 µM | IC50 (second compound 0.316 µM): 0.00574 µM | IC50 (second compound 1 µM): 0.00562 µM | IC50 (second compound 3.16 µM): 0.0044 µM | IC50 (second compound 10 µM): 0.00425 µM | viability, T/C (second compound 0.1 µM, first compound 0.00316 µM): 67.1% | viability, T/C (second compound 0.1 µM, first compound 0.01 µM): 31% | viability, T/C [1]: 15.9% | viability, T/C [2]: 7.27% | viability, T/C [3]: 7.36% | viability, T/C [4]: 6.36% | viability, T/C (second compound 0.316 µM, first compound 0.00316 µM): 70.7% | viability, T/C (second compound 0.316 µM, first compound 0.01 µM): 30.2% | viability, T/C [5]: 16.6% | viability, T/C [6]: 8.6% | viability, T/C [7]: 7.02% | viability, T/C [8]: 7.03% | viability, T/C (second compound 1 µM, first compound 0.00316 µM): 69% | viability, T/C (second compound 1 µM, first compound 0.01 µM): 29.8% | viability, T/C [9]: 17.8% | viability, T/C [10]: 8.46% | viability, T/C [11]: 6.49% | viability, T/C [12]: 7.09% | viability, T/C (second compound 3.16 µM, first compound 0.00316 µM): 57.8% | viability, T/C (second compound 3.16 µM, first compound 0.01 µM): 30.5% | viability, T/C [13]: 19.4% | viability, T/C [14]: 9.33% | viability, T/C [15]: 7.94% | viability, T/C [16]: 6.66% | viability, T/C (second compound 10 µM, first compound 0.00316 µM): 57.7% | viability, T/C (second compound 10 µM, first compound 0.01 µM): 28% | viability, T/C [17]: 19.1% | viability, T/C [18]: 11.6% | viability, T/C [19]: 8.23% | viability, T/C [20]: 9.73%

NS(=O)(=O)OCC1CC(n2ccc3c(NC4CCc5ccccc54)ncnc32)CC1O (stereo not given) + NC1CC1c1ccc(-c2cccc(O)c2)cc1
IC50 (second compound 0.1 µM): 0.0115 µM | IC50 (second compound 0.316 µM): 0.0112 µM | IC50 (second compound 1 µM): < 0.00949 µM | IC50 (second compound 3.16 µM): < 0.00949 µM | IC50 (second compound 10 µM): < 0.00949 µM | viability, T/C (second compound 0.1 µM, first compound 0.00949 µM): 54.5% | viability, T/C (second compound 0.1 µM, first compound 0.03 µM): 28.2% | viability, T/C (second compound 0.1 µM, first compound 0.0949 µM): 9.26% | viability, T/C (second compound 0.1 µM, first compound 0.3 µM): 5.09% | viability, T/C (second compound 0.1 µM, first compound 0.949 µM): 2.96% | viability, T/C (second compound 0.1 µM, first compound 3 µM): 2.17% | viability, T/C (second compound 0.316 µM, first compound 0.00949 µM): 54.2% | viability, T/C (second compound 0.316 µM, first compound 0.03 µM): 26.2% | viability, T/C (second compound 0.316 µM, first compound 0.0949 µM): 9.29% | viability, T/C (second compound 0.316 µM, first compound 0.3 µM): 5.11% | viability, T/C (second compound 0.316 µM, first compound 0.949 µM): 3% | viability, T/C (second compound 0.316 µM, first compound 3 µM): 2.26% | viability, T/C (second compound 1 µM, first compound 0.00949 µM): 45.8% | viability, T/C (second compound 1 µM, first compound 0.03 µM): 20.7% | viability, T/C (second compound 1 µM, first compound 0.0949 µM): 9.67% | viability, T/C (second compound 1 µM, first compound 0.3 µM): 4.9% | viability, T/C (second compound 1 µM, first compound 0.949 µM): 3.15% | viability, T/C (second compound 1 µM, first compound 3 µM): 2.38% | viability, T/C (second compound 3.16 µM, first compound 0.00949 µM): 36.5% | viability, T/C (second compound 3.16 µM, first compound 0.03 µM): 18.4% | viability, T/C (second compound 3.16 µM, first compound 0.0949 µM): 9.14% | viability, T/C (second compound 3.16 µM, first compound 0.3 µM): 5.23% | viability, T/C (second compound 3.16 µM, first compound 0.949 µM): 3.44% | viability, T/C (second compound 3.16 µM, first compound 3 µM): 2.31% | viability, T/C (second compound 10 µM, first compound 0.00949 µM): 20.9% | viability, T/C (second compound 10 µM, first compound 0.03 µM): 12.1% | viability, T/C (second compound 10 µM, first compound 0.0949 µM): 5.43% | viability, T/C (second compound 10 µM, first compound 0.3 µM): 3.74% | viability, T/C (second compound 10 µM, first compound 0.949 µM): 2.55% | viability, T/C (second compound 10 µM, first compound 3 µM): 2.05%

CC1COCCN1c1cc(C2(S(C)(=N)=O)CC2)nc(-c2ccnc3[nH]ccc23)n1 (stereo not given) + NC1CC1c1ccc(-c2cccc(O)c2)cc1
IC50 (second compound 0.1 µM): 0.714 µM | IC50 (second compound 0.316 µM): 0.771 µM | IC50 (second compound 1 µM): 0.613 µM | IC50 (second compound 3.16 µM): 0.603 µM | IC50 (second compound 10 µM): 0.189 µM | viability, T/C [1]: 80% | viability, T/C [2]: 88.2% | viability, T/C [3]: 65.3% | viability, T/C [4]: 42.1% | viability, T/C (second compound 0.1 µM, first compound 3.16 µM): 22% | viability, T/C (second compound 0.1 µM, first compound 10 µM): 9.29% | viability, T/C [5]: 95.1% | viability, T/C [6]: 104% | viability, T/C [7]: 62.3% | viability, T/C [8]: 47.7% | viability, T/C (second compound 0.316 µM, first compound 3.16 µM): 20.8% | viability, T/C (second compound 0.316 µM, first compound 10 µM): 7.91% | viability, T/C [9]: 95.3% | viability, T/C [10]: 80.5% | viability, T/C [11]: 69.5% | viability, T/C [12]: 36.2% | viability, T/C (second compound 1 µM, first compound 3.16 µM): 17.8% | viability, T/C (second compound 1 µM, first compound 10 µM): 7.07% | viability, T/C [13]: 96.4% | viability, T/C [14]: 101% | viability, T/C [15]: 67.1% | viability, T/C [16]: 34.6% | viability, T/C (second compound 3.16 µM, first compound 3.16 µM): 17.9% | viability, T/C (second compound 3.16 µM, first compound 10 µM): 7.17% | viability, T/C [17]: 64.4% | viability, T/C [18]: 59.7% | viability, T/C [19]: 42% | viability, T/C [20]: 28.8% | viability, T/C (second compound 10 µM, first compound 3.16 µM): 15.8% | viability, T/C (second compound 10 µM, first compound 10 µM): 6.83%
